{"source": "ChEMBL document CHEMBL3885881", "about": "“DrugMatrix”", "key": {"Rattus norvegicus [1]": {"species_on_record": "Rattus norvegicus", "experiment": "DrugMatrix - Regimen: Daily Repeat", "assay_type": "toxicity, organism-based, Sprague-Dawley", "set-up": "regimen Daily Repeat, gender Male, age 6-8 weeks", "conditions": "in vivo, po, 75 mg/kg, route oral GAVAGE, dose level High, vehicle .5 % CMC"}, "Rattus norvegicus [2]": {"species_on_record": "Rattus norvegicus", "assay_type": "toxicity, organism-based, Sprague-Dawley", "conditions": "in vivo, po, 75 mg/kg, 24 h, route oral GAVAGE, dose level High, time 1 day, vehicle .5 % CMC", "description": "DrugMatrix - Regimen: Single"}, "[3]": {"conditions": "[…], tissue Plasma, time 14 day"}}}
{"smiles": "COc1ccc(C2CNC(=O)C2)cc1OC1CCCC1", "note": "(centres undefined) [ROLIPRAM]", "values": [{"measurement": "URIC ACID", "setting": "Rattus norvegicus [1]; 120 h, tissue Plasma, time 5 day", "result": 1.3, "unit": "mg/dL"}, {"measurement": "ABSOLUTE BASOPHIL", "setting": "Rattus norvegicus [1]; […], tissue Blood, time 14 day", "result": 0, "unit": "CELLS/uL"}, {"measurement": "ABSOLUTE EOSINOPHIL", "setting": "Rattus norvegicus [1]; […], tissue Blood, time 14 day", "result": 252.2, "unit": "CELLS/uL"}, {"measurement": "ABSOLUTE LYMPHOCYTE", "setting": "Rattus norvegicus [1]; […], tissue Blood, time 14 day", "result": 9667.6, "unit": "CELLS/uL"}, {"measurement": "ABSOLUTE MONOCYTE", "setting": "Rattus norvegicus [1]; […], tissue Blood, time 14 day", "result": 605.6, "unit": "CELLS/uL"}, {"measurement": "ABSOLUTE SEGMENTED NEUTROPHIL", "setting": "Rattus norvegicus [1]; […], tissue Blood, time 14 day", "result": 4994.6, "unit": "CELLS/uL"}, {"measurement": "BASOPHIL", "setting": "Rattus norvegicus [1]; […], tissue Blood, time 14 day", "result": 0, "unit": "%"}, {"measurement": "EOSINOPHIL", "setting": "Rattus norvegicus [1]; […], tissue Blood, time 14 day", "result": 1.6, "unit": "%"}, {"measurement": "ERYTHROCYTE COUNT", "setting": "Rattus norvegicus [1]; […], tissue Blood, time 14 day", "result": 6.09, "unit": "x10E6/uL"}, {"measurement": "HEMATOCRIT", "setting": "Rattus norvegicus [1]; […], tissue Blood, time 14 day", "result": 35.84, "unit": "%"}, {"measurement": "HEMOGLOBIN", "setting": "Rattus norvegicus [1]; […], tissue Blood, time 14 day", "result": 13.22, "unit": "G/DL"}, {"measurement": "LEUKOCYTE COUNT", "setting": "Rattus norvegicus [1]; […], tissue Blood, time 14 day", "result": 15.52, "unit": "x10E3/uL"}, {"measurement": "LYMPHOCYTE", "setting": "Rattus norvegicus [1]; […], tissue Blood, time 14 day", "result": 69.8, "unit": "%"}, {"measurement": "MEAN CORPUSCULAR HEMOGLOBIN", "setting": "Rattus norvegicus [1]; […], tissue Blood, time 14 day", "result": 21.78, "unit": "pg"}, {"measurement": "MEAN CORPUSCULAR HEMOGLOBIN CONCENTRATION", "setting": "Rattus norvegicus [1]; […], tissue Blood, time 14 day", "result": 36.88, "unit": "G/DL"}, {"measurement": "MEAN CORPUSCULAR VOLUME", "setting": "Rattus norvegicus [1]; […], tissue Blood, time 14 day", "result": 59, "unit": "fL"}, {"measurement": "MONOCYTE", "setting": "Rattus norvegicus [1]; […], tissue Blood, time 14 day", "result": 3.4, "unit": "%"}, {"measurement": "NEUTROPHIL", "setting": "Rattus norvegicus [1]; […], tissue Blood, time 14 day", "result": 25.2, "unit": "%"}, {"measurement": "NUCLEATED RED BLOOD CELLS", "setting": "Rattus norvegicus [1]; […], tissue Blood, time 14 day", "result": "0 /100WBC"}, {"measurement": "PLATELET COUNT", "setting": "Rattus norvegicus [1]; […], tissue Blood, time 14 day", "result": 1123.6, "unit": "x10E3/uL"}, {"measurement": "ALANINE AMINOTRANSFERASE", "setting": "Rattus norvegicus [1]; [3]", "result": 56, "unit": "u/L"}, {"measurement": "ALBUMIN", "setting": "Rattus norvegicus [1]; [3]", "result": 3.84, "unit": "G/DL"}, {"measurement": "ALKALINE PHOSPHATASE", "setting": "Rattus norvegicus [1]; [3]", "result": 286.6, "unit": "u/L"}, {"measurement": "ASPARTATE AMINOTRANSFERASE", "setting": "Rattus norvegicus [1]; [3]", "result": 76.6, "unit": "u/L"}, {"measurement": "BLOOD UREA NITROGEN", "setting": "Rattus norvegicus [1]; [3]", "result": 15.4, "unit": "mg/dL"}, {"measurement": "CARBON DIOXIDE", "setting": "Rattus norvegicus [1]; [3]", "result": 31.8, "unit": "mmol/L"}, {"measurement": "CHLORIDE", "setting": "Rattus norvegicus [1]; [3]", "result": 104, "unit": "MEQ/L"}, {"measurement": "CHOLESTEROL", "setting": "Rattus norvegicus [1]; [3]", "result": 55.8, "unit": "mg/dL"}, {"measurement": "CREATININE", "setting": "Rattus norvegicus [1]; [3]", "result": 0.19, "unit": "mg/dL"}, {"measurement": "GLUCOSE", "setting": "Rattus norvegicus [1]; [3]", "result": 131.8, "unit": "mg/dL"}, {"measurement": "LACTATE DEHYDROGENASE", "setting": "Rattus norvegicus [1]; [3]", "result": 80.4, "unit": "u/L"}, {"measurement": "LIPASE", "setting": "Rattus norvegicus [1]; [3]", "result": 9, "unit": "u/L"}, {"measurement": "PHOSPHORUS", "setting": "Rattus norvegicus [1]; [3]", "result": 9.08, "unit": "mg/dL"}, {"measurement": "POTASSIUM", "setting": "Rattus norvegicus [1]; [3]", "result": 5.55, "unit": "MEQ/L"}, {"measurement": "SODIUM", "setting": "Rattus norvegicus [1]; [3]", "result": 149.03, "unit": "MEQ/L"}, {"measurement": "TOTAL BILIRUBIN", "setting": "Rattus norvegicus [1]; [3]", "result": 0.16, "unit": "mg/dL"}, {"measurement": "TOTAL PROTEIN", "setting": "Rattus norvegicus [1]; [3]", "result": 5.98, "unit": "G/DL"}, {"measurement": "URIC ACID", "setting": "Rattus norvegicus [1]; [3]", "result": 0.64, "unit": "mg/dL"}, {"measurement": "ABSOLUTE EOSINOPHIL", "setting": "Rattus norvegicus [2]; tissue Blood", "result": 109.33, "unit": "CELLS/uL"}, {"measurement": "ABSOLUTE LYMPHOCYTE", "setting": "Rattus norvegicus [2]; tissue Blood", "result": 7018.33, "unit": "CELLS/uL"}, {"measurement": "ABSOLUTE MONOCYTE", "setting": "Rattus norvegicus [2]; tissue Blood", "result": 257, "unit": "CELLS/uL"}, {"measurement": "ABSOLUTE SEGMENTED NEUTROPHIL", "setting": "Rattus norvegicus [2]; tissue Blood", "result": 1082, "unit": "CELLS/uL"}, {"measurement": "BASOPHIL", "setting": "Rattus norvegicus [2]; tissue Blood", "result": 0, "unit": "%"}, {"measurement": "EOSINOPHIL", "setting": "Rattus norvegicus [2]; tissue Blood", "result": 1.33, "unit": "%"}, {"measurement": "ERYTHROCYTE COUNT", "setting": "Rattus norvegicus [2]; tissue Blood", "result": 5.95, "unit": "x10E6/uL"}, {"measurement": "HEMATOCRIT", "setting": "Rattus norvegicus [2]; tissue Blood", "result": 37, "unit": "%"}, {"measurement": "HEMOGLOBIN", "setting": "Rattus norvegicus [2]; tissue Blood", "result": 13.5, "unit": "G/DL"}, {"measurement": "LEUKOCYTE COUNT", "setting": "Rattus norvegicus [2]; tissue Blood", "result": 8.47, "unit": "x10E3/uL"}, {"measurement": "LYMPHOCYTE", "setting": "Rattus norvegicus [2]; tissue Blood", "result": 83.33, "unit": "%"}, {"measurement": "MEAN CORPUSCULAR HEMOGLOBIN", "setting": "Rattus norvegicus [2]; tissue Blood", "result": 22.7, "unit": "pg"}, {"measurement": "MEAN CORPUSCULAR HEMOGLOBIN CONCENTRATION", "setting": "Rattus norvegicus [2]; tissue Blood", "result": 36.47, "unit": "G/DL"}, {"measurement": "MEAN CORPUSCULAR VOLUME", "setting": "Rattus norvegicus [2]; tissue Blood", "result": 62.17, "unit": "fL"}, {"measurement": "MONOCYTE", "setting": "Rattus norvegicus [2]; tissue Blood", "result": 3, "unit": "%"}, {"measurement": "NEUTROPHIL", "setting": "Rattus norvegicus [2]; tissue Blood", "result": 12.33, "unit": "%"}, {"measurement": "NUCLEATED RED BLOOD CELLS", "setting": "Rattus norvegicus [2]; tissue Blood", "result": "0 /100WBC"}, {"measurement": "PLATELET COUNT", "setting": "Rattus norvegicus [2]; tissue Blood", "result": 1249.33, "unit": "x10E3/uL"}, {"measurement": "ALANINE AMINOTRANSFERASE", "setting": "Rattus norvegicus [2]; tissue Plasma", "result": 29, "unit": "u/L"}, {"measurement": "ALBUMIN", "setting": "Rattus norvegicus [2]; tissue Plasma", "result": 4.47, "unit": "G/DL"}, {"measurement": "ALKALINE PHOSPHATASE", "setting": "Rattus norvegicus [2]; tissue Plasma", "result": 403.67, "unit": "u/L"}, {"measurement": "ASPARTATE AMINOTRANSFERASE", "setting": "Rattus norvegicus [2]; tissue Plasma", "result": 74.67, "unit": "u/L"}, {"measurement": "BLOOD UREA NITROGEN", "setting": "Rattus norvegicus [2]; tissue Plasma", "result": 13.33, "unit": "mg/dL"}, {"measurement": "CARBON DIOXIDE", "setting": "Rattus norvegicus [2]; tissue Plasma", "result": 34.67, "unit": "mmol/L"}, {"measurement": "CHLORIDE", "setting": "Rattus norvegicus [2]; tissue Plasma", "result": 103, "unit": "MEQ/L"}, {"measurement": "CHOLESTEROL", "setting": "Rattus norvegicus [2]; tissue Plasma", "result": 69.67, "unit": "mg/dL"}, {"measurement": "CREATININE", "setting": "Rattus norvegicus [2]; tissue Plasma", "result": 0.18, "unit": "mg/dL"}, {"measurement": "GLUCOSE", "setting": "Rattus norvegicus [2]; tissue Plasma", "result": 144.33, "unit": "mg/dL"}, {"measurement": "LACTATE DEHYDROGENASE", "setting": "Rattus norvegicus [2]; tissue Plasma", "result": 95.67, "unit": "u/L"}, {"measurement": "LIPASE", "setting": "Rattus norvegicus [2]; tissue Plasma", "result": 8.67, "unit": "u/L"}, {"measurement": "PHOSPHORUS", "setting": "Rattus norvegicus [2]; tissue Plasma", "result": 11.1, "unit": "mg/dL"}, {"measurement": "POTASSIUM", "setting": "Rattus norvegicus [2]; tissue Plasma", "result": 5.46, "unit": "MEQ/L"}, {"measurement": "SODIUM", "setting": "Rattus norvegicus [2]; tissue Plasma", "result": 151.33, "unit": "MEQ/L"}, {"measurement": "TOTAL BILIRUBIN", "setting": "Rattus norvegicus [2]; tissue Plasma", "result": 0.1, "unit": "mg/dL"}, {"measurement": "TOTAL PROTEIN", "setting": "Rattus norvegicus [2]; tissue Plasma", "result": 6.4, "unit": "G/DL"}, {"measurement": "URIC ACID", "setting": "Rattus norvegicus [2]; tissue Plasma", "result": 1.17, "unit": "mg/dL"}]}
